Reference: patent US8173638B2 (Boehringer Ingelheim International GmbH, priority 2006, dated 2012)
Where two headings read alike, the source gives them in different places.

Target: T1, human CB2R (Homo sapiens, UniProt P34972)
T1 construct: host or cells: CHO cells
Assay: CB2R mediated modulation of cAMP synthesis
Assay type: cell-based
Conditions: for agonistic activity: found through the use of the described assays (CB2 agonists), qualitative statement; for Emax: 0.5 h, read-out: Agonist Efficacy (%)
Outline: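 Forskolin (10 uM)-driven cAMP in human CB2R-expressing CHO cells, read with DiscoverX-XS kit after 30 min compound exposure at 37 °C, 1 mM IBMX, 0.25% BSA. 100% defined as forskolin cAMP relative to 1 uM CP55940 inhibition. Agonist EC50 via four-parameter logistic model.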

[1] = CHO cells expressing human CB2R, cAMP inhibited by 1 uM CP55940 defined as 100%

T1 sequence (P34972 whole entry): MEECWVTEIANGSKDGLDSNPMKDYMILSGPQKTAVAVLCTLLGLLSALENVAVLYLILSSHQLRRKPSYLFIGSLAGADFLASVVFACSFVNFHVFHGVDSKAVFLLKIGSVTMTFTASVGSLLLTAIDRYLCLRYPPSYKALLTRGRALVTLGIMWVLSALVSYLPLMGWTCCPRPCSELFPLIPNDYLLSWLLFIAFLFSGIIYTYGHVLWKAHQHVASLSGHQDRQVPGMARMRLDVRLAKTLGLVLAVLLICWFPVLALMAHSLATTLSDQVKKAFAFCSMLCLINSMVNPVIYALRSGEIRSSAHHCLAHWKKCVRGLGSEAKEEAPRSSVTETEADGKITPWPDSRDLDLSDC

SMILES	agonistic activity	also measured
CS(=O)(=O)c1ccc(NC(=O)N2CCCN(C(=O)CCC3CCCC3)CC2)cc1 [4-(3-Cyclopentyl-propionyl)-[1,4]diazepane-1-carboxylic acid (4-methanesulfonyl-phenyl)-amide]	agonistic activity	
CC(C)(C)c1cc(NC(=O)N2CCCN(C(=O)C3CCOCC3)CC2)no1 [Compound 142, 4-(Tetrahydro-pyran-4-carbonyl)-[1,4]diazepane-1-carboxylic acid (5-tert-butyl-isoxazol-3-yl)-amide]		Emax (CHO): 110%
O=C(Nc1nc(C2CC2)cs1)N1CCCN(C(=O)c2ccc(Cl)cc2)CC1 [4-(4-Chloro-benzoyl)-[1,4]diazepane-1-carboxylic acid (4-cyclopropyl-thiazol-2-yl)-amide]	agonistic activity	
CC(C)(C)c1ccc(NC(=O)N2CCCN(C(=O)c3cc(Cl)cc(Cl)c3)CC2)cc1 [4-(3,5-Dichloro-benzoyl)-[1,4]diazepane-1-carboxylic acid (4-tert-butyl-phenyl)-amide]	agonistic activity	
COC1CCN(C(=O)N2CCCN(C(=O)Nc3cc(C(C)(C)C)no3)CC2)CC1 [4-(4-Methoxy-piperidine-1-carbonyl)-[1,4]diazepane-1-carboxylic acid (3-tert-butyl-isoxazol-5-yl)-amide]	agonistic activity	
CC(C)(C)c1cc(NC(=O)N2CCCN(C(=O)NC3CCCCC3)CC2)no1	agonistic activity	
CC(C)(C)c1ccc(NC(=O)N2CCCN(C(=O)COc3ccccc3)CC2)cc1 [4-(2-Phenoxy-acetyl)-[1,4]diazepane-1-carboxylic acid (4-tert-butyl-phenyl)-amide]	agonistic activity	
CC(C)(C)c1cc(NC(=O)N2CCCN(C(=O)C3CCC(N)CC3)CC2)no1 (stereo not shown) [4-(4-Amino-cyclohexanecarbonyl)-[1,4]diazepane-1-carboxylic acid (5-tert-butyl-isoxazol-3-yl)-amide]	agonistic activity	
COC1CCC(C(=O)N2CCCN(C(=O)Nc3cc(C(C)(C)C)on3)CC2)CC1 (stereo not shown) [Compound 155, 4-(4-Methoxy-cyclohexanecarbonyl)-[1,4]diazepane-1-carboxylic acid (5-tert-butyl-isoxazol-3-yl)-amide]		Emax (CHO): 101%; EC50 (read-out: hCB2 cAMP EC50): 110 nM
CC(C)(C)c1ccc(NC(=O)N2CCCN(C(=O)N3CCS(=O)(=O)CC3)CC2)cc1 [4-(1,1-Dioxo-1λ^6-thiomorpholine-4-carbonyl)-[1,4]diazepane-1-carboxylic acid (4-tert-butyl-phenyl)-amide]	agonistic activity	
CC(C)c1ccc(NC(=O)N2CCCN(C(=O)CCC3CC3)CC2)cc1 [Compound 55, 4-(3-Cyclopropyl-propionyl)-[1,4]diazepane-1-carboxylic acid (4-isopropyl-phenyl)-amide]		Emax [1]: 105%; EC50 (read-out: hCB2 cAMP EC50): 89 nM
CC(C)(C)c1cc(NC(=O)N2CCCN(C(=O)N3CCSCC3)CC2)no1 [4-(Thiomorpholine-4-carbonyl)-[1,4]diazepane-1-carboxylic acid (5-tert-butyl-isoxazol-3-yl)-amide]	agonistic activity	
CCCCCc1ccc(NC(=O)N2CCCN(C(=O)CCC3CCCC3)CC2)cc1 [4-(3-Cyclopentyl-propionyl)-[1,4]diazepane-1-carboxylic acid (4-pentyl-phenyl)-amide]	agonistic activity	
CC(C)(C)c1cc(NC(=O)N2CCCN(C(=O)NC3CCCC3)CC2)no1 [Compound 217, [1,4]Diazepane-1,4-dicarboxylic acid 1-[(5-tert-butyl-isoxazol-3-yl)-amide] 4-cyclopentylamide]		EC50: 32 nM; Emax (CHO): 100%
O=C(Nc1ccc2ccccc2c1)N1CCCN(C(=O)c2ccc(Cl)cc2)CC1 [Compound 79, 4-(4-Chloro-benzoyl)-[1,4]diazepane-1-carboxylic acid naphthalen-2-ylamide]		Emax [1]: 100%; EC50 (read-out: hCB2 cAMP EC50): 46 nM
O=C(Nc1ccc2ccccc2c1)N1CCCN(C(=O)c2ccc(C(F)(F)F)cc2)CC1 [4-(4-Trifluoromethyl-benzoyl)-[1,4]diazepane-1-carboxylic acid naphthalen-2-ylamide]	agonistic activity	
O=C(CC1CCOCC1)N1CCCN(C(=O)Nc2ccc(OC(F)(F)F)cc2)CC1 [4-(2-Tetrahydro-pyran-4-yl-acetyl)-[1,4]diazepane-1-carboxylic acid (4-trifluoromethoxy-phenyl)-amide]	agonistic activity	
CC(C)(C)c1cc(NC(=O)N2CCCN(C(=O)c3ccc(Cl)cc3)CC2)no1 [4-(4-Chloro-benzoyl)-[1,4]diazepane-1-carboxylic acid (5-tert-butyl-isoxazol-3-yl)-amide]	agonistic activity	
CC(C)(C)c1cc(NC(=O)N2CCCN(C(=O)NC3CCOCC3)CC2)no1	agonistic activity	

SMILES	agonistic activity	also measured
CC(C)(C)c1cc(NC(=O)N2CCCN(C(=O)C3CCCN(S(C)(=O)=O)C3)CC2)no1 (stereo not shown) [4-(1-Methanesulfonyl-piperidine-3-carbonyl)-[1,4]diazepane-1-carboxylic acid (5-tert-butyl-isoxazol-3-yl)-amide]	agonistic activity	
O=C(Nc1ccc(C(F)(F)F)cc1)N1CCCN(C(=O)C2CCCCC2)CC1 [4-Cyclohexanecarbonyl-[1,4]diazepane-1-carboxylic acid (4-trifluoromethyl-phenyl)-amide]	agonistic activity	
O=C(CC1CCOCC1)N1CCCN(C(=O)Nc2ccc(C(F)(F)F)cc2)CC1 [4-(2-Tetrahydro-pyran-4-yl-acetyl)-[1,4]diazepane-1-carboxylic acid (4-trifluoromethyl-phenyl)-amide]	agonistic activity	
CC(C)(C)c1cc(NC(=O)N2CCCN(C(=O)C3CCC(=O)CC3)CC2)no1 [Compound 234, 4-(4-Oxo-cyclohexanecarbonyl)-[1,4]diazepane-1-carboxylic acid (5-tert-butyl-isoxazol-3-yl)-amide]		EC50: 33 nM; Emax (CHO): 100%
CC(C)(C)c1cc(NC(=O)N2CCCN(C(=O)C3CCCCCC3)CC2)no1 [Compound 152, 4-Cycloheptanecarbonyl-[1,4]diazepane-1-carboxylic acid (5-tert-butyl-isoxazol-3-yl)-amide]		Emax [1]: 104%; EC50 (read-out: hCB2 cAMP EC50): 19 nM
CCC(C)c1ccc(NC(=O)N2CCCN(C(=O)C3CCOCC3)CC2)cc1 (stereo not shown) [4-(Tetrahydro-pyran-4-carbonyl)-[1,4]diazepane-1-carboxylic acid (4-sec-butyl-phenyl)-amide]	agonistic activity	
N#Cc1ccc(C(=O)N2CCCN(C(=O)Nc3ccc4ccccc4c3)CC2)cc1 [4-(4-Cyano-benzoyl)-[1,4]diazepane-1-carboxylic acid naphthalen-2-ylamide]	agonistic activity	
CC(C)(C)c1cc(NC(=O)N2CCCN(C(=O)N3CCCOCC3)CC2)no1 [4-([1,4]Oxazepane-4-carbonyl)-[1,4]diazepane-1-carboxylic acid (5-tert-butyl-isoxazol-3-yl)-amide]	agonistic activity	
CC(=O)N1CCN(C(=O)N2CCCN(C(=O)Nc3cc(C(C)(C)C)on3)CC2)CC1 [4-(4-Acetyl-piperazine-1-carbonyl)-[1,4]diazepane-1-carboxylic acid (5-tert-butyl-isoxazol-3-yl)-amide]	agonistic activity	
CC(C)(C)c1cc(NC(=O)N2CCCN(C(=O)CN3CCS(=O)(=O)CC3)CC2)on1 [4-[2-(1,1-Dioxo-1λ^6-thiomorpholin-4-yl)-acetyl]-[1,4]diazepane-1-carboxylic acid (3-tert-butyl-isoxazol-5-yl)-amide]	agonistic activity	
CC(C)c1ccc(NC(=O)N2CCCN(C(=O)c3ccc(Cl)cc3)CC2)cc1 [Compound 41, 4-(4-Chloro-benzoyl)-[1,4]diazepane-1-carboxylic acid (4-isopropyl-phenyl)-amide]		Emax [1]: 95%; EC50 (read-out: hCB2 cAMP EC50): 43 nM
O=C(Nc1ccc(Oc2ccccc2)nc1)N1CCCN(C(=O)C2CCOCC2)CC1 [4-(Tetrahydro-pyran-4-carbonyl)-[1,4]diazepane-1-carboxylic acid (6-phenoxy-pyridin-3-yl)-amide]	agonistic activity	
O=C(Nc1ccc(Cl)c(Cl)c1)N1CCCN(C(=O)C2CCCCC2)CC1 [4-Cyclohexanecarbonyl-[1,4]diazepane-1-carboxylic acid (3,4-dichloro-phenyl)-amide]	agonistic activity	
CC(C)c1ccc(NC(=O)N2CCCN(C(=O)C3CCCCC3)CC2)cc1 [4-Cyclohexanecarbonyl-[1,4]diazepane-1-carboxylic acid (4-isopropyl-phenyl)-amide]	agonistic activity	
O=C(Nc1nc2c(s1)CCCC2)N1CCCN(C(=O)c2ccc(Cl)cc2)CC1 [Compound 168, 4-(4-Chloro-benzoyl)-[1,4]diazepane-1-carboxylic acid (4,5,6,7-tetrahydro-benzothiazol-2-yl)-amide]		Emax [1]: 101%; EC50 (read-out: hCB2 cAMP EC50): 3.6 nM
CC(C)c1ccc(NC(=O)N2CCCN(C(=O)C(C)(C)C)CC2)cc1 [4-pivaloyl-[1,4]diazepane-1-carboxylic acid (4-isopropyl-phenyl)-amide]	agonistic activity	
N#Cc1ccc(NC(=O)N2CCCN(C(=O)CCC3CCCC3)CC2)cc1 [4-(3-Cyclopentyl-propionyl)-[1,4]diazepane-1-carboxylic acid (4-cyano-phenyl)-amide]	agonistic activity	
O=C(Nc1ccc(C(F)(F)F)cc1)N1CCCN(C(=O)c2ccc(C(F)(F)F)cc2)CC1	agonistic activity	
CC(C)c1ccc(NC(=O)N2CCCN(C(=O)CC3CCOCC3)CC2)cc1 [4-(2-Tetrahydro-pyran-4-yl-acetyl)-[1,4]diazepane-1-carboxylic acid (4-isopropyl-phenyl)-amide]	agonistic activity	
